Results reported in PubChem BioAssay AID256 (DTP/NCI, 2004).
“And” between values parts separate entries of the source, which are not always exact repeats. Equal values may be shown once. Toxic doses and inconclusive results are not listed. Rule for the calls: active = survival T/C of 150% or more; inactive = T/C below 125% in these data.

Test system: CD2F1 mice, L1210 leukemia ip, survival T/C
Assay: NCI In Vivo Anticancer Drug Screen. Data for tumor model L1210 Leukemia (intraperitoneal) in CD2F1 (CDF1) mice
Details: higher = longer survival
In short: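 Antitumor effect is scored in animals hosting a serially transplanted tumor. Values compare compound-dosed animals against vehicle-only controls as a simple quotient.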

[1] = endpoint: mean survival time, dose: 100.0 mg/kg/injection, schedule: Q01DX001 (ip), vehicle: saline with Tween-80
[2] = endpoint: mean survival time, dose: 100.0 mg/kg/injection, schedule: Q01DX009 (ip), vehicle: saline with Tween-80
[3] = endpoint: mean survival time, dose: 200.0 mg/kg/injection, schedule: Q01DX001 (ip), vehicle: saline with Tween-80
[4] = endpoint: mean survival time, dose: 200.0 mg/kg/injection, schedule: Q01DX009 (ip), vehicle: saline with Tween-80
[5] = endpoint: mean survival time, dose: 400.0 mg/kg/injection, schedule: Q01DX001 (ip), vehicle: saline with Tween-80
[6] = endpoint: mean survival time, dose: 400.0 mg/kg/injection, schedule: Q01DX009 (ip), vehicle: saline with Tween-80
[7] = endpoint: mean survival time, dose: 100.0 mg/kg/injection, schedule: Q04DX003 (ip), vehicle: saline with Tween-80
[8] = endpoint: mean survival time, dose: 200.0 mg/kg/injection, schedule: Q04DX003 (ip), vehicle: saline with Tween-80
[9] = endpoint: mean survival time, dose: 400.0 mg/kg/injection, schedule: Q04DX003 (ip), vehicle: saline with Tween-80
[10] = endpoint: mean survival time, dose: 100.0 mg/kg/injection, schedule: Q04DX003 (ip), vehicle: saline
[11] = endpoint: mean survival time, dose: 200.0 mg/kg/injection, schedule: Q04DX003 (ip), vehicle: saline
[12] = endpoint: mean survival time, dose: 50.0 mg/kg/injection, schedule: Q01DX009 (ip), vehicle: saline with Tween-80
[13] = endpoint: mean survival time, dose: 75.0 mg/kg/injection, schedule: Q01DX001 (ip), vehicle: saline
[14] = endpoint: mean survival time, dose: 100.0 mg/kg/injection, schedule: Q04DX002 (ip), vehicle: saline with Tween-80
[15] = endpoint: mean survival time, dose: 200.0 mg/kg/injection, schedule: Q04DX002 (ip), vehicle: saline with Tween-80
[16] = endpoint: mean survival time, dose: 400.0 mg/kg/injection, schedule: Q04DX002 (ip), vehicle: saline with Tween-80

Measured: T/C

Cc1ccc(-n2c(=S)[nH]c3ccccc3c2=O)cc1F
inactive: [1] 92 % of control | [2] 88 % of control | [3] 92 % of control | [4] 88 % of control | [5] 89 % of control | [6] 93 % of control

O=[N+]([O-])c1cc([N+](=O)[O-])c2nc3ccccn3c2c1
inactive: [7] 101 % of control | [8] 101 % of control | [9] 101 % of control

O=P(OCc1ccccc1)(N(CCCl)CCCl)N1CCCC1 (configuration not stated)
inactive: endpoint: mean survival time, dose: 128.0 mg/kg/injection, schedule: Q01DX Z (ip), vehicle: saline 101 % of control

Cc1c(C)c(NC(=O)/C=C/C(=O)O)c(C)c(C)c1NC(=O)/C=C\C(=O)O
inactive: endpoint: mean survival time, dose: 100.0 mg/kg/injection, schedule: Q01DX001 (ip), vehicle: Klucel (hydroxypropylcellulose) (HPC) 101 % of control | endpoint: mean survival time, dose: 200.0 mg/kg/injection, schedule: Q01DX001 (ip), vehicle: Klucel (hydroxypropylcellulose) (HPC) 96 % of control | endpoint: mean survival time, dose: 400.0 mg/kg/injection, schedule: Q01DX001 (ip), vehicle: Klucel (hydroxypropylcellulose) (HPC) 98 % of control

Cc1cc(C)[nH]c(=S)n1.[Pd]
inactive: endpoint: mean survival time, dose: 3.12 mg/kg/injection, schedule: Q04DX003 (ip), vehicle: saline 97 % of control | endpoint: mean survival time, dose: 6.25 mg/kg/injection, schedule: Q04DX003 (ip), vehicle: saline 102 % of control | endpoint: mean survival time, dose: 12.5 mg/kg/injection, schedule: Q04DX003 (ip), vehicle: saline 100 % of control | endpoint: mean survival time, dose: 25.0 mg/kg/injection, schedule: Q04DX003 (ip), vehicle: saline 103 % of control | endpoint: mean survival time, dose: 50.0 mg/kg/injection, schedule: Q04DX003 (ip), vehicle: saline 102 % of control | [10] 105 % of control | [11] 102 % of control

NC(=O)c1n[nH]c(C2OC(CO)C(O)C2O)n1 (configuration not stated)
inactive: endpoint: mean survival time, dose: 12.5 mg/kg/injection, schedule: Q01DX005 (ip), vehicle: water 94 % of control | endpoint: mean survival time, dose: 25.0 mg/kg/injection, schedule: Q01DX005 (ip), vehicle: water 92 % of control | endpoint: mean survival time, dose: 50.0 mg/kg/injection, schedule: Q01DX005 (ip), vehicle: water 94 % of control | endpoint: mean survival time, dose: 100.0 mg/kg/injection, schedule: Q01DX005 (ip), vehicle: water 94 % of control | endpoint: mean survival time, dose: 200.0 mg/kg/injection, schedule: Q01DX005 (ip), vehicle: water 96 % of control

CN1NC(=O)C2CCCC1O2 (configuration not stated)
inactive: endpoint: mean survival time, dose: 12.5 mg/kg/injection, schedule: Q01DX009 (ip), vehicle: saline 106 % of control | endpoint: mean survival time, dose: 25.0 mg/kg/injection, schedule: Q01DX009 (ip), vehicle: saline 102 % of control | endpoint: mean survival time, dose: 50.0 mg/kg/injection, schedule: Q01DX009 (ip), vehicle: saline 105 % of control | endpoint: mean survival time, dose: 100.0 mg/kg/injection, schedule: Q01DX009 (ip), vehicle: saline 111 % of control

COc1nc(NC2OCC(O)C(O)C2O)c(C(C)=O)c(=O)n1C (configuration not stated)
inactive: endpoint: median survival time, dose: 12.5 mg/kg/injection, schedule: Q01DX005 (ip), vehicle: saline with Tween-80 91 % of control | endpoint: median survival time, dose: 25.0 mg/kg/injection, schedule: Q01DX005 (ip), vehicle: saline with Tween-80 98 % of control | endpoint: median survival time, dose: 50.0 mg/kg/injection, schedule: Q01DX005 (ip), vehicle: saline with Tween-80 97 % of control | endpoint: median survival time, dose: 100.0 mg/kg/injection, schedule: Q01DX005 (ip), vehicle: saline with Tween-80 96 % of control | endpoint: median survival time, dose: 200.0 mg/kg/injection, schedule: Q01DX005 (ip), vehicle: saline with Tween-80 96 % of control

O=C(O)c1ccc2c(c1Cl)C(=O)c1ccccc1C2=O
inactive: [12] 100 % of control | [2] 103 % of control | [4] 100 % of control

c1ccc2nc(-c3cc4ccccc4s3)ccc2c1
inactive: [2] 103 % of control | [7] 107 % of control | [4] 100 % of control | [8] 101 % of control | [6] 97 % of control | [9] 96 % of control

C=CCNc1nc2c(s1)CCc1cc(OC)c(OC)cc1-2
inactive: endpoint: mean survival time, dose: 12.5 mg/kg/injection, schedule: Q01DX009 (ip), vehicle: saline with Tween-80 92 % of control and 97 % of control | endpoint: mean survival time, dose: 25.0 mg/kg/injection, schedule: Q01DX009 (ip), vehicle: saline with Tween-80 95 % of control and 101 % of control | [12] 97 % of control and 98 % of control | [2] 97 % of control and 101 % of control | [4] 97 % of control and 101 % of control | [6] 106 % of control

O=C1CCC2(Cc3ccccc3C2=O)O1 (configuration not stated)
inactive: [13] 94 % of control | endpoint: mean survival time, dose: 150.0 mg/kg/injection, schedule: Q01DX001 (ip), vehicle: saline 96 % of control | endpoint: mean survival time, dose: 300.0 mg/kg/injection, schedule: Q01DX001 (ip), vehicle: saline 94 % of control

COc1ccc(NC(=O)Nc2ccc([N+](=O)[O-])cc2OC)c(Cl)c1
inactive: endpoint: mean survival time, dose: 25.0 mg/kg/injection, schedule: Q04DX002 (ip), vehicle: saline with Tween-80 88 % of control and 101 % of control | endpoint: mean survival time, dose: 50.0 mg/kg/injection, schedule: Q04DX002 (ip), vehicle: saline with Tween-80 95 % of control and 103 % of control | [1] 94 % of control | [2] 88 % of control and 95 % of control | [14] 95 % of control | [7] 97 % of control | [3] 101 % of control | [4] 88 % of control and 97 % of control | [15] 93 % of control | [8] 95 % of control | [5] 86 % of control and 91 % of control | [6] 90 % of control and 100 % of control | [16] 98 % of control | [9] 101 % of control

CC(=O)OC1CCC2(C)C3CCC4(C)C(OC(=O)c5ccccc5)CCC4C3C3C(=O)OC32C1 (configuration not stated)
inactive: [1] 91 % of control | [3] 90 % of control and 96 % of control | [5] 88 % of control

COc1ccc(C(=O)NC[n+]2ccccc2)cc1
inactive: [10] 109 % of control

c1ccc2cc(-c3cc4ccccc4s3)ccc2c1
inactive: endpoint: mean survival time, dose: 264.0 mg/kg/injection, schedule: Q01DX009 (ip), vehicle: saline with Tween-80 104 % of control | [6] 98 % of control

O=C(NCCc1ccccc1)c1ccccc1
inactive: [2] 101 % of control | [4] 107 % of control | [6] 97 % of control

CC1(C)C=CC(=O)c2ccccc21
inactive: [7] 94 % of control | [8] 100 % of control | [9] 101 % of control

O=S1(=O)CC2(N3CCOCC3)CCCCC21 (configuration not stated)
inactive: [10] 100 % of control | [11] 102 % of control | endpoint: mean survival time, dose: 400.0 mg/kg/injection, schedule: Q04DX003 (ip), vehicle: saline 104 % of control

NNC(=O)c1cc2ccccc2cc1O
inactive: [2] 97 % of control | [4] 86 % of control | [6] 94 % of control

O=C(O)CCOc1cc(F)c(F)cc1F
inactive: [14] 101 % of control | [15] 90 % of control | [16] 97 % of control

Cc1cccc(N=NN(C)C)c1
inactive: endpoint: mean survival time, dose: 19.0 mg/kg/injection, schedule: Q01DX009 (ip), vehicle: Klucel (hydroxypropylcellulose) (HPC) 113 % of control | endpoint: mean survival time, dose: 29.0 mg/kg/injection, schedule: Q01DX009 (ip), vehicle: Klucel (hydroxypropylcellulose) (HPC) 119 % of control | endpoint: mean survival time, dose: 44.0 mg/kg/injection, schedule: Q01DX009 (ip), vehicle: Klucel (hydroxypropylcellulose) (HPC) 123 % of control | endpoint: mean survival time, dose: 66.0 mg/kg/injection, schedule: Q01DX009 (ip), vehicle: Klucel (hydroxypropylcellulose) (HPC) 114 % of control | [13] 120 % of control
